Laboratory results reported in patent US20170144969A1, “ANT[…], METHOD FOR PRODUCTION AND USES THEREOF” (priority 2014, published 2017).
Several values for one entry are separate records, joined by “and”; a condition that tells them apart may be missing. Identical values can stand only once. Like-named read-outs stand apart in the source and are kept apart here.

Experiments:
MRSA (ATCC 33591) = experiment: Minimum Inhibitory Concentration, micro-dilution broth; assay type: cell-based, methicillin-resistant S. aureus; conditions: 24 h, 37° C.
E. coli (MTCC 443) = experiment: as above; assay type: cell-based; conditions: 24 h, 37° C.
human Red Blood Cells = experiment: Haemolytic activity; conditions: for HC50: human RBCs, 1 h at 37° C.; for hemolysis: at 1000 µM concentration
[1] = test system: vancomycin resistant Enterococcus faecium (VRE) (ATCC 51559); experiment: Minimum Inhibitory Concentration, micro-dilution broth; assay type: cell-based; conditions: 24 h, 37° C.
[2] = test system: Enterococcus faecium (ATCC 19634); experiment: as above; assay type: cell-based; conditions: 24 h, 37° C., read-out: Minimum Inhibitory Concentration E. faceium
S. aureus (MTCC 737) = experiment: as above; assay type: cell-based, Staphylococcus aureus; conditions: 37° C.
[3] = test system: Klebsiella pneumoniae (ATCC 700603); experiment: as above; assay type: cell-based; conditions: 24 h, 37° C.

| Molecule | Minimum Inhibitory Concentration MRSA (MRSA (ATCC 33591)) | MIC (E. coli (MTCC 443)) [µM] | HC50 (human Red Blood Cells; Table 3) | MIC [1] | MIC [2] [µM] | MIC (S. aureus (MTCC 737); 24 h) [µM] | Minimum Inhibitory Concentration K. pneumonie [3] [µM] | hemolysis (human Red Blood Cells) | MIC (E. coli (MTCC 443); Escherichia coli, MTCC443) [µM] | MIC ([2]; Enterococcus faecium, ATCC19634, 24 h) [µM] | MIC (S. aureus (MTCC 737); Staphylococcus aureus, MTCC737, 24 h) [µM] | HC50 (human Red Blood Cells; Table 6) [µM] |
| --- | --- | --- | --- | --- | --- | --- | --- | --- | --- | --- | --- | --- |
| CCCCCCCCCC(=O)N(CCCNC(=O)[C@@H](N)Cc1ccccc1)CCCNC(=O)[C@@H](N)Cc1ccccc1.O=C(O)C(F)(F)F.O=C(O)C(F)(F)F [Compound 1, N,N-bis-[{3-(^LPhe)amino}propyl]decanamide bis(trifluoroacetate)] | 25 µM | 24 | 232 | 17 µM | 36 | 19 | 70 |  |  |  |  |  |
| CCCCCCCCCCCCCC(=O)N(CCCNC(=O)[C@@H](N)Cc1ccccc1)CCCNC(=O)[C@@H](N)Cc1ccccc1.O=C(O)C(F)(F)F.O=C(O)C(F)(F)F [Compound 3, N,N-bis-[{3-(^LPhe)amino}propyl]tetradecanamide bis(trifluoroacetate)] | 4.8 µM | 16 | 144 | 2.8 µM | 5.2 | 7 | 18 |  |  |  |  |  |
| CCCCCCCCCCCCCCCC(=O)N(CCCNC(=O)[C@@H](N)Cc1ccccc1)CCCNC(=O)[C@@H](N)Cc1ccccc1.O=C(O)C(F)(F)F.O=C(O)C(F)(F)F [Compound 4, N,N-bis-[{3-(^LPhe)amino}propyl]hexadecanamide bis(trifluoroacetate)] | 5.2 µM | 225 | 83 | 3 µM | 8.5 | 10 | 70 |  |  |  |  |  |
| CCCCCCCCCCCCCCCCCC(=O)N(CCCNC(=O)[C@@H](N)Cc1ccccc1)CCCNC(=O)[C@@H](N)Cc1ccccc1.O=C(O)C(F)(F)F.O=C(O)C(F)(F)F [Compound 5, N,N-bis-[{3-(^LPhe)amino}propyl]octadecanamide bis(trifluoroacetate)] | 5.6 µM | 270 | 71 | 3.2 µM | 11 | 12 | 95 |  |  |  |  |  |
| CCCCCCCCCCCCCC(=O)N(CCCNC(=O)[C@@H](N)Cc1c[nH]c2ccccc12)CCCNC(=O)[C@@H](N)Cc1c[nH]c2ccccc12.O=C(O)C(F)(F)F.O=C(O)C(F)(F)F [Compound 7, N,N-bis-[{3-(^LTrp)amino}propyl]tetradecanamide bis(trifluoroacetate)] |  | 39 |  | 2.7 µM | 2.5 | 2.5 |  |  |  |  |  |  |
| CCCCCCCCCCCCCCCC(=O)N(CCCNC(=O)[C@@H](N)Cc1c[nH]c2ccccc12)CCCNC(=O)[C@@H](N)Cc1c[nH]c2ccccc12.O=C(O)C(F)(F)F.O=C(O)C(F)(F)F [Compound 8, N,N-bis-[{3-(^LTrp)amino}propyl]hexadecanamide bis(trifluoroacetate)] |  | >257 |  | 7 µM | 5.4 | 6.5 |  |  |  |  |  |  |
| CCCCCCCCCC(=O)N(CCCNC(=O)[C@@H](N)CCCCN)CCCNC(=O)[C@@H](N)CCCCN.O=C(O)C(F)(F)F.O=C(O)C(F)(F)F [Compound 9, N,N-bis-[{3-(^LLys)amino}propyl]decanamide bis(trifluoroacetate)] | 65 µM | 40 | >1000 | 58 µM | 60 | 53 | 98 | did not show any hemolytic |  |  |  |  |
| CCCCCCCCCCCC(=O)N(CCCNC(=O)[C@@H](N)CCCCN)CCCNC(=O)[C@@H](N)CCCCN.O=C(O)C(F)(F)F.O=C(O)C(F)(F)F [Compound 10, N,N-bis-[{3-(^LLys)amino}propyl]dodecanamide bis(trifluoroacetate)] | 45 µM | 14 | >1000 | 30 µM | 32 | 37 | 40 | did not show any hemolytic |  |  |  |  |
| CCCCCCCCCCCCCCCC(=O)N(CCCNC(=O)[C@@H](N)CCCCN)CCCNC(=O)[C@@H](N)CCCCN.O=C(O)C(F)(F)F.O=C(O)C(F)(F)F [Compound 12, N,N-bis-[{3-(^LLys)amino}propyl]hexadecanamide bis(trifluoroacetate)] | 4.8 µM | 5.4 | 264 | 1 µM | 1.1 |  | 6.5 |  |  |  |  |  |
| CCCCCCCCCCCCCCCCCC(=O)N(CCCNC(=O)[C@@H](N)CCCCN)CCCNC(=O)[C@@H](N)CCCCN.O=C(O)C(F)(F)F.O=C(O)C(F)(F)F [Compound 13, N,N-bis-[{3-(^LLys)amino}propyl]octadecanamide bis(trifluoroacetate)] | 14 µM | 8.4 | 108 | 2.2 µM |  | 7.7 | 7.5 |  |  |  |  |  |
| CCCCCCCCCCCCCC(=O)N(CCCNC(=O)[C@@H](N)CCCN)CCCNC(=O)[C@@H](N)CCCN.O=C(O)C(F)(F)F.O=C(O)C(F)(F)F [Compound 14, N,N-bis-[{3-(^LOrn)amino}propyl]tetradecanamide bis(trifluoroacetate)] |  | 6.6 |  | 5.3 µM | 5.2 | 7.9 |  |  |  |  |  |  |
| CCCCCCCCCCCCCCCC(=O)N(CCCNC(=O)[C@@H](N)CCCN)CCCNC(=O)[C@@H](N)CCCN.O=C(O)C(F)(F)F.O=C(O)C(F)(F)F [Compound 15, N,N-bis-[{3-(^LOrn)amino}propyl]hexadecanamide bis(trifluoroacetate)] |  | 5.2 |  | 3 µM | 3.2 | 6.4 |  |  |  |  |  |  |
| CCCCCCCCCCCCCCCC(=O)N(CCCNC(=O)[C@H](N)CCCCN)CCCNC(=O)[C@H](N)CCCCN.O=C(O)C(F)(F)F.O=C(O)C(F)(F)F [Compound 17, N,N-bis-[{3-(^DLys)amino}propyl]hexadecanamide bis(trifluoroacetate)] |  | 4.8 |  | 2.2 µM | 2.7 | 3.9 |  |  |  |  |  |  |
| N[C@@H](Cc1ccccc1)C(=O)NCCCN(CCCNC(=O)[C@@H](N)Cc1ccccc1)C(=O)Cc1cccc2ccccc12 [Compound 21, N,N-bis-[{3-(^LPhe)amino}propyl]α-naphthylacetamide bis(trifluoroacetate)] |  |  |  | > 304 µM |  |  |  |  | > 304 | > 304 | > 304 |  |
| N[C@@H](Cc1ccccc1)C(=O)NCCCNCCCNC(=O)[C@@H](N)Cc1ccccc1.O=C(O)C(F)(F)F.O=C(O)C(F)(F)F.O=C(O)C(F)(F)F [Compound 22, N^1-^LPhe-N^3-[{3-(^LPhe)amino}propyl]propane-1,3-diamine tris(trifluoroacetate)] | >250 µM | >250 |  | >250 µM | >250 | >250 | >250 |  |  |  |  |  |
| NCCCC[C@H](N)C(=O)NCCCNCCCNC(=O)[C@@H](N)CCCCN.O=C(O)C(F)(F)F.O=C(O)C(F)(F)F.O=C(O)C(F)(F)F [Compound 23, N^1-^LLys-N^3-[{3-(^LLys)amino}propyl]propane-1,3-diamine tris(trifluoroacetate)] | >250 µM | >250 |  | >250 µM | >250 | >250 | >250 |  |  |  |  |  |
| CCCCCCCCCCCCCCCC(=O)N(CCCNC(=O)[C@@H](N)[C@@H](C)CC)CCCNC(=O)[C@@H](N)[C@@H](C)CC.O=C(O)C(F)(F)F.O=C(O)C(F)(F)F [Compound 53, N,N-bis-[{3-(^LIle)amido}propyl]hexadecanamide bis(trifluoroacetate)] | 2.6 µM and 2.7 µM | 26 |  | 4.2 µM and 2.6 µM | 3 | 4 |  |  |  |  |  | 60 |
| CCCCCCCCCCCCCC(=O)N(CCCNC(=O)[C@@H](N)CC(C)C)CCCNC(=O)[C@@H](N)CC(C)C.O=C(O)C(F)(F)F.O=C(O)C(F)(F)F [Compound 55, N,N-bis-[{3-(^LLeu)amido}propyl]tetradecanamide bis(trifluoroacetate)] |  | 5.4 |  |  | 4.2 | 3.6 |  |  |  |  |  | 118 |
| N^1-octyl-N^3-(Boc-^LAla)-N^1-[3-{(Boc-^LAla)amino}propyl]propane-1,3-diamine tris(trifluoroacetate) [Compound 19] |  | 343 |  |  |  | 313 |  |  |  |  |  |  |
| N^1-octyl-N^3-(Boc-^LLys)-N^1-[3-{(Boc-^LLys)amino}propyl]propane-1,3-diamine tris(trifluoroacetate) [Compound 20] |  | 133 |  |  |  | 86 |  |  |  |  |  |  |
| N^1-octyl-N^3-(Boc-^LPhe)-N^1-[3-{(Boc-^LPhe)amino}propyl]propane-1,3-diamine tris(trifluoroacetate) [Compound 18] |  | 68 |  |  |  | 38 |  |  |  |  |  |  |
